Experimental findings from US20220340665A1, “INHIBITOR AGAINST EXPRESSION OF IMMUNE CHECKPOINT MOLECULE” (RENASCIENCE INC., priority 2019, published 2022) are described below.

This test addresses human PAI-1 (Homo sapiens, UniProt P05121). In words: PAI-1 inhibitory activity, t-PA with Spectrozyme t-PA chromogenic substrate (Reference Experimental Example 2). Format: biochemical. Set-up: purchased Molecular Innovations, Inc. (USA). Here is the method: Subsequently, human-derived tissue plasminogen activator (t-PA) (manufactured by American Diagnostica, Inc. (USA); the same applies hereinafter) adjusted to 0.05 pmol/μL was added thereto, and the mixture was further incubated at 37° C. for 60 minutes. Then, 0.25 mM of Spectrozyme t-PA synthetic substrate (manufactured by American Diagnostica, Inc. (USA); the same applies hereinafter), which is a chromogenic substrate, was added. […]
Free p-nitroaniline removed from the chromogenic substrate (Spectrozyme t-PA) by t-PA action was measured using a spectrophotometer at an absorbance of 405 nm at 20-minute intervals, for 120 minutes.

The mark [1] stands for this setting: Tables 5 to 7, first value column, head prints no concentration.
The mark [2] stands for this setting: Tables 5 to 7, second value column, head prints no concentration.
Where [3] appears, read: compound 10 μm (head), system without compound after 120 minutes = 100%.
Setting [4] is: compound 25 μm (head), system without compound after 120 minutes = 100%.

Chain of human PAI-1 (P05121 24-402): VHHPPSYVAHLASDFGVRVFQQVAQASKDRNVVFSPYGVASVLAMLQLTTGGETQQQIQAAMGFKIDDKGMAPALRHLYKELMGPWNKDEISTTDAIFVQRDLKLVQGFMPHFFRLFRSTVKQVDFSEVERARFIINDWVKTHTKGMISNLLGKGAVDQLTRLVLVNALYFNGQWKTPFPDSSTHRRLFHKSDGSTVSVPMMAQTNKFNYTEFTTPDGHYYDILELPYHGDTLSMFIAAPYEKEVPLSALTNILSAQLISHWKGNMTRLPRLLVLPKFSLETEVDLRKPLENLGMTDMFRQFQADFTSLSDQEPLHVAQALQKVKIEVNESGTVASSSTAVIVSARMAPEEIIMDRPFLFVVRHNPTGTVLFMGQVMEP

Consider “2-((biphenyl-4-ylcarbonoyl)amino)-5-chlorobenzoic acid [Example 71]”, for which the PAI-1 activity % by setting is: under setting [1], 2.1%; under setting [2], 39.6%.

As to “5-chloro-2-((3-(3-(furan-3-yl)phenyl)propenoyl)amino)benzoic acid [Example 36]”, the PAI-1 activity % runs as follows: under setting [3], 3.7%; under setting [4], 95.7%.

In the case of “5-chloro-2-(((3-(cyclohex-1-en-1yl)phenyl)acetyl)amino)benzoic acid [Example 25]”, the PAI-1 activity % by setting is: under setting [3], 0.0%; under setting [4], 85.8%.

On to “5-chloro-2-(((4-(methylcyclohexyl)phenyl)carbonyl)amino)benzoic acid [Example 98]”, for which the PAI-1 activity % reads like this: under setting [1], 0.1%; under setting [2], 41.5%.

Regarding `O=C(Nc1ccc(Cl)cc1C(=O)[O-])c1cccc(-c2ccncc2)c1.[Na+]` [Example 8, 5-chloro-2-(((3-(pyridin-4-yl)phenyl)carbonyl)amino)sodium benzoate], the PAI-1 activity % reads like this: under setting [3], 28.5%; under setting [4], 100.3%.

Consider `CC(C)(C)c1cccc(OCC(=O)Nc2ccc(Cl)cc2C(=O)O)c1` [Example 16, 2-(((3-tert-butylphenoxy)acetyl)amino)-5-chlorobenzioc acid], for which the PAI-1 activity % runs as follows: under setting [3], 21.9%; under setting [4], 77.4%.

Take `CC(C)(C)c1cccc(OCC(=O)Nc2ccc(Cl)cc2C(=O)O)c1` [Example 18, 2-(((3-tert-butylphenoxy)acetyl)amino)-5-chlorobenzoic acid]: the PAI-1 activity % reads like this: under setting [3], 16.1%; under setting [4], 81.4%.

`O=C(COc1ccc(C23CC4CC(CC(C4)C2)C3)cc1)Nc1ccc(Cl)cc1C(=O)O` [Example 21]: the PAI-1 activity % amounted to 0.3% under setting [3] and 10.0% under setting [4].

`Cn1c(C(=O)Nc2ccc(Cl)cc2C(=O)O)cc2cc(Br)ccc21` [Example 23]: the PAI-1 activity % is given as 1.8% under setting [3] and 97.3% under setting [4].

With `O=C(COc1cccc(C23CC4CC(CC(C4)C2)C3)c1)Nc1ccc(Cl)cc1C(=O)O` [Example 30], the PAI-1 activity % reads like this: under setting [3], 1.3%; under setting [4], 19.3%.

In the case of `O=C(O)c1cc(Cl)ccc1NC(=O)C1CCCN(C(=O)c2cccc(-c3ccccc3)c2)C1` (stereo not drawn) [Example 31, 2-(((1-(biphenyl-3-ylcarbonyl)pipendin-3-yl)carbonyl)amino)-5-chlorobenzoic acid], the PAI-1 activity % runs as follows: under setting [3], 20.2%; under setting [4], 88.0%.

As to `O=C(Nc1ccc(Cl)cc1C(=O)O)c1ccc(C2=CCOCC2)cc1` [Example 32, 5-chloro-2-(((4'-(3,6-dihydro-2H-pyran-4-yl)phenyl)carbonyl)amino)benzoic acid], the PAI-1 activity % reads like this: under setting [3], 1.7%; under setting [4], 94.4%.

As for `O=C(Nc1ccc(Cl)cc1C(=O)O)c1ccc(C2=CCOCC2)cc1` [Example 34, 5-chloro-2-(((4-(3,6-dihyrdo-2H-pyran-4-yl)phenyl)carbonyl)amino)benzoic acid], the PAI-1 activity % was 45.1% under setting [3] and 97.1% under setting [4].

For `O=C(O)c1cc(Cl)ccc1NC(=O)C1(c2cccc(-c3ccoc3)c2)CC1` [Example 35, 5-chloro-2-(((1-(3-(furan-3-yl)phenyl)cyclopropyl)carbonyl)amino)benzoic acid], under setting [4], the PAI-1 activity % is 96.8%.

On to `O=C(O)c1cc(Cl)ccc1NC(=O)c1cccc2c1Cc1ccccc1-2` [Example 38, 5-chloro-2-((9H-fluoren-1-ylcarbonyl)amino)benzoic acid], for which, under setting [4], the PAI-1 activity % is recorded as 94.6%.

Consider `CC(C)(Oc1cccc(-c2ccoc2)c1)C(=O)Nc1ccc(Cl)cc1C(=O)O` [Example 44, 5-chloro-2-((2-(3-(furan-3-yl)phenoxy)-2-methylpropenoyl)amino)benzoic acid], for which the PAI-1 activity % by setting is: under setting [3], 20.4%; under setting [4], 97.6%.

With `O=C(COc1ccccc1-c1ccccc1)Nc1ccc(-c2ccoc2)cc1C(=O)O` [Example 46, 2-(((biphenyl-2-yloxy)acetyl)amino)-5-(furan-3-yl)benzoic acid], the PAI-1 activity % amounted to 0.4% under setting [3] and 69.9% under setting [4].

Turning to `O=C(Nc1ccc(Cl)cc1C(=O)O)c1ccc(C(=O)C23CC4CC(CC(C4)C2)C3)cc1` [Example 56], the PAI-1 activity % is, setting by setting: under setting [3], 0.7%; under setting [4], 75.8%.

As to `O=C(Nc1ccc(Cl)cc1C(=O)O)C(=O)c1c[nH]c2ccc(OCc3ccccc3)cc12` [Example 57, 2-(((5-(benzyloxy)-1H-indol-3-yl)(oxo)acetyl)amino)-5-chlorobenzoic acid], the PAI-1 activity % under setting [4] is 36.6%.

Turning to `O=C(Nc1ccc(Cl)cc1C(=O)O)c1cccc(-c2cccc3ccccc23)c1` [Example 58, 5-chloro-2-(((3-(naphthalen-1-yl)phenyl)carbonyl)amino)benzoic acid], the PAI-1 activity % reads like this: under setting [3], 0.0%; under setting [4], 0.0%.

Consider `COc1ccccc1-c1cccc(OCC(=O)Nc2ccc(Cl)cc2C(=O)O)c1` [Example 61, 5-chloro-2-((((2'-methoxybiphenyl-3-yl)oxy)acetyl)amino)benzoic acid], for which, under setting [3], the PAI-1 activity % is 36.9%.

Turning to `O=C(Nc1ccc(Cl)cc1C(=O)[O-])c1cccc(-c2cnc3ccccc3c2)c1.[Na+]` [Example 63, 5-chloro-2-(((3-(quinolin-3-yl)phenyl)carbonyl)amino)sodium benzoate], the PAI-1 activity % reads like this: under setting [3], 0.3%; under setting [4], 21.3%.

Turning to `O=C(Nc1ccc(Cl)cc1C(=O)[O-])c1cccc(-c2cncc3ccccc23)c1.[Na+]` [Example 64, 5-chloro-2-(((3-(isoquinolin-4-yl)phenyl)carbonyl)amino)sodium benzoate], the PAI-1 activity % runs as follows: under setting [3], 0.7%; under setting [4], 74.3%.

Regarding `O=C(Nc1ccc(Cl)cc1C(=O)[O-])c1cccc(-c2cccc3ncccc23)c1.[Na+]` [Example 65, 5-chloro-2-(((3-(quinolin-50yl)phenyl)carbonyl)amino)sodium benzoate], the PAI-1 activity % runs as follows: under setting [3], 0.4%; under setting [4], 71.7%.

With `O=C(Nc1ccc(Cl)cc1C(=O)[O-])c1cccc(-c2cccc3cnccc23)c1.[Na+]` [Example 66], the PAI-1 activity % is, setting by setting: under setting [3], 0.1%; under setting [4], 22.6%.

For `O=C(Nc1ccc(Cl)cc1C(=O)[O-])c1ccc(-c2cccc3cccnc23)cc1.[Na+]` [Example 67, 5-chloro-2-(((4-(quinolin-8-yl)phenyl)carbonyl)amino)sodium benzoate], the PAI-1 activity % worked out at 0.6% under setting [3] and 90.4% under setting [4].

Regarding `Cl.O=C(O)c1cc(Cl)ccc1NC(=O)N1CCN(C(c2ccccc2)c2ccccc2)CC1` [Example 75, 5-chloro-2-(((4-(diphenylmethyl)piperacin-1-yl)carbonyl)amino)benzoic acid hydrochloride], the PAI-1 activity % is listed as 4.7% under setting [1] and 86.4% under setting [2].

For the compound `O=C(COC(c1ccccc1)c1ccccc1)Nc1ccc(Cl)cc1C(=O)O` [Example 76, 5-chloro-2-(((diphenylmethoxy)acetyl)amino)benzoic acid], the PAI-1 activity % under setting [1] was 30.5%.

Turning to `O=C(CN1CCN(C(c2ccccc2)c2ccccc2)CC1)Nc1ccc(Cl)cc1C(=O)O` [Example 77, 5-chloro-2-(((4-(diphenylmethyl)piperazin-1-yl)acetyl)amino)benzoic acid], the PAI-1 activity % under setting [2] amounted to 69.6%.

As to `O=C(Nc1ccc(Cl)cc1C(=O)O)c1cccc(C2=CCCCC2)c1` [Example 79, 5-chloro-2-(((3-(cyclohex-1-en-1yl-)phenyl)carbonyl)amino)benzoic acid], the PAI-1 activity % was 1.6% under setting [1] and 44.5% under setting [2].

For the compound `O=C(Nc1ccc(C2=CCCCC2)cc1C(=O)O)c1ccc(C2CCCCC2)cc1` [Example 81, 5-(cyclohex-1-en-1-yl)-2-(((4-cylcohexylphenyl)carbonyl)amino)benzoic acid], the PAI-1 activity % was found to be 0.0% under setting [1] and 1.0% under setting [2].

In the case of `Cc1ccc(C23CC4CC(CC(C(=O)Nc5ccc(Cl)cc5C(=O)O)(C4)C2)C3)cc1` [Example 86], the PAI-1 activity % reads like this: under setting [1], 1.4%; under setting [2], 63.5%.

Turning to `O=C(/C=C(/Cl)C1CCCCC1)Nc1ccc(Cl)cc1C(=O)O` [Example 91, 5-chloro-2-(((2E)-3-chloro-3-cyclohexlprop-2-encyl)amino)benzoic acid], the PAI-1 activity % under setting [1] is given as 16.7% and the PAI-1 activity % under setting [2] is on record as 96.9%.

Take `O=C(Nc1ccc(CCC2CCCCC2)cc1C(=O)O)c1ccc(C2CCCCC2)cc1` [Example 93, 5-(2-cyclohexylethyl)2-(((4-cyclohexylphenyl)carbonyl)amino)beznoic acid]: the PAI-1 activity % worked out at 0.0% under setting [1] and 0.0% under setting [2].

With `O=C(C=Cc1ccc(C23CC4CC(CC(C4)C2)C3)cc1)Nc1ccc(Cl)cc1C(=O)O` [Example 94, 2-((3-(4-(adamantan-1-yl)phenyl)prop-2-enoyl)amino)-5-chlorobenzoic acid], the PAI-1 activity % runs as follows: under setting [1], 7.4%; under setting [2], 3.5%.

Take `C#Cc1ccc(NC(=O)c2ccc(C3CCCCC3)cc2)c(C(=O)O)c1` [Example 95, 2-(((4-cyclohexylphenyl)carbonyl)amino)-5-ethynlbenzoic acid]: the PAI-1 activity % was 0.3% under setting [1] and 80.5% under setting [2].
